Source: patent US20200254065A1, “LONG-ACTING GLP-2 ANALOGS” (OPKO Biologics Ltd., priority 2019, published 2020)
Entries after “also recorded” stand apart in the source; their conditions may differ. Square brackets hold non-standard residues; d marks the D form. Peptide text beside a SMILES is read from it. Nle = CCCC[C@H](N)C(=O)O

Assays:
[1] = system: intestine epithelium (crypts plus villi); test: Crypts plus villi length, histopathology of small intestine; assay type: in vivo, SD rats
Description: In addition to PEG30-FMS-V4 and PEG30-Fmoc-V4 that have been pharmacology evaluated by small intestinal weight evaluation (As shown in Example 5), four other reversible PEGylated variant 4 (“V4”) conjugates and two reversible linker-V4 conjugates were synthesized. All the above were injected to 6 normal SD rats/group once at 2 mg/kg (peptide dose), while on the 6th day, animals were scarified, and the small intestine was weighted followed by histopathology evaluation. […] Therefore, slices from three areas of the intestine (duodenum, jejunum and ilium) were stained with hematoxylin and eosin and at least 7 Crypts+Villi length/slice were measured. The averaged Villi+Crypt length of each treatment group (n=6) was compared to the vehicle group (negative control) and calculated as percentage increase over vehicle. […]
An additional study to evaluate the efficacy and the longevity of V4 and Cys-FMS-V4 was conducted (Study reference 15204) in which the animals were sacrificed on Days 6 (N=6), 10 (N=4) and 14 (N=4). This experiment measured the pharmacological response compared to the commercially approved SBS treatment drug Gattex. In addition, two new conjugates were tested by conjugating V4 to reduced OSu-linker and Cys-FMS-V4 purified from resin. The animals were injected with a single SC injection at Day 1 with 2 mg/kg peptide content of V4, Cys-FMS-V4, FMS-OSu-V4, Apraglutide and Glepaglutide while Gattex was SC injected daily at 2.5 mg/kg peptide content. […]

[2] = Stability of GLP-2 analogues on incubation at 37° C. (appearance, O.D. reading, RP-HPLC); assay type: physicochemical; details: following 48 h incubation at 37° C.
Description: The GLP-2 analogues were tested for stability via appearance, O.D. reading (A.280, and A.325) and RP-HPLC (purity, and peak area) following t=0, 1 day, and 48 h incubation at 37° C.

[3] = Solubility and stability in different buffer systems, concentrations, incubation and freeze-thaw; assay type: physicochemical; details: Histidine and NaPi, pH 6.8 to 7.5; 1-10 mg/mL; up to 3 days at 37° C.; up to three freeze-thaw cycles
[4] = PK after single SC injection in rats (LC-MS/MS); details: rat, in vivo, 2 mg/kg
Description: To support the pharmacodynamic effects of V4 and Cys-FMS-V4 as detailed in Example 9, a pharmacokinetic analysis was also conducted. In this study (Study reference 15204), all animals were injected SC on Day 1 with 2 mg/kg peptide content of V4, Cys-FMS-V4 and Apraglutide. Blood samples were collected at 2, 8, 12, 24, 36, 48, 72, 96, 120 hours, and Days 7, 8, 9, 10, 11, 12, 13 and 14 post-dose administration and subsequently taken to LC-MS/MS analysis to determine plasma levels of each compound. For Cys-FMS-V4, a 2-analyte method was applied to determine the plasma concentrations of both the full conjugate and the V4 that was hydrolyzed from it (V4 hydrolyzed). Plasma concentrations (μM), as measured by using the LC-MS/MS method, of V4 peptide, Cys-FMS-V4, hydrolyzed V4, and Apraglutide are presented in FIG. 17.

[5] = PK after single IV injection in rats; assay type: in vivo; details: rat, in vivo, iv, 2 mg/kg
Excerpt: Blood samples were collected at 0.5, 2, 4, 8, 12, 24, 36, 48, 72, 96- and 120-hours post-dose administration.

GLP-2 receptor = biological target: T1, GLP-2 receptor (Homo sapiens, UniProt O95838); test: GLP-2 receptor Cell Based Assay (CBA)
T1 sequence (O95838 1-553): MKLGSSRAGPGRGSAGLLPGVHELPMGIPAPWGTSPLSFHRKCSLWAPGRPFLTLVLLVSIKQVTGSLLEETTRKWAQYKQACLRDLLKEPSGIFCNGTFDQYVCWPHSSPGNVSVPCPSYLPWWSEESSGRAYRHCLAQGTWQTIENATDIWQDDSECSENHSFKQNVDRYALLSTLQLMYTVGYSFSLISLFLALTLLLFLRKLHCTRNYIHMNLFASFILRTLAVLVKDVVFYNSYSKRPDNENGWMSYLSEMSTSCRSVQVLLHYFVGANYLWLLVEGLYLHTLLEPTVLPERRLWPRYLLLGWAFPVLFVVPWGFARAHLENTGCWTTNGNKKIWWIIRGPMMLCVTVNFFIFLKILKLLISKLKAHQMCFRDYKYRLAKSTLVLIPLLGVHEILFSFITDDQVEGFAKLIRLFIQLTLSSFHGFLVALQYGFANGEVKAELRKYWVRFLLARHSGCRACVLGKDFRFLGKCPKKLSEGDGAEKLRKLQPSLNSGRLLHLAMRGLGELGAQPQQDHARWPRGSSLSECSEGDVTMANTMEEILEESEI
Description: Evaluation of in vitro binding affinity of the different peptides was assessed by using Cell Based Assay (CBA) in the presence of escalating doses of the different peptides.

For `CCCC[C@H](NC(=O)[C@H](CCC(=O)O)NC(=O)[C@H](CC(=O)O)NC(=O)[C@H](CO)NC(=O)[C@H](Cc1ccccc1)NC(=O)[C@H](CO)NC(=O)CNC(=O)[C@H](CCC(=O)O)NC(=O)CNC(=O)[C@@H](N)Cc1c[nH]cn1)C(=O)N[C@@H](CC(N)=O)C(=O)N[C@H](C(=O)N[C@H](C(=O)N[C@@H](CC(C)C)C(=O)N[C@@H](CC(=O)O)C(=O)N[C@@H](CC(C)C)C(=O)N[C@@H](CC(C)C)C(=O)N[C@@H](C)C(=O)N[C@@H](C)C(=O)N[C@@H](CCCNC(=N)N)C(=O)N[C@@H](CC(=O)O)C(=O)N[C@@H](Cc1ccccc1)C(=O)N[C@H](C(=O)N[C@@H](CC(N)=O)C(=O)N[C@@H](Cc1c[nH]c2ccccc12)C(=O)N[C@@H](CC(C)C)C(=O)N[C@H](C(=O)N[C@@H](CCC(N)=O)C(=O)N[C@H](C(=O)N[C@@H](CCCCN)C(=O)N[C@H](C(=O)N[C@H](C(=O)N[C@@H](CC(=O)O)C(N)=O)[C@@H](C)O)[C@@H](C)CC)[C@@H](C)O)[C@@H](C)CC)[C@@H](C)CC)[C@@H](C)CC)[C@@H](C)O` [Variant 4] (H-HGEGSFSDE[Nle]NTILDLLAARDFINWLIQTKITD-NH2), the “Percent increase of Crypts+Villi length over vehicle (FIG. 3)” value ([1]; Study 15201, 0.5 and 2 mg/kg peptide dose once, 6 days after injection) was “dose dependent pharmacology effect on the intestine epithelium”, the “Crypts plus villi length percent increase over vehicle (FIG. 13)” value ([1]; Study 15203, single SC 2 mg/kg on Day 1, Days 6 and 10, listed as V4, 2 mg/kg) was “the most pronounced effect on crypts plus villi length over vehicle compared to Apraglutide and Glepaglutide; also recorded: prolonged activity 10 days following a single SC injection” and the “Crypts plus villi length percent increase over vehicle (FIG. 14)” value ([1]; Study 15204, single SC 2 mg/kg on Day 1, Days 6, 10 and 14) was “the most prominent and prolonged effect on villi and crypts length up to 14 days from injection”. The “Villi plus crypts length percent increase over vehicle (FIG. 16)” value ([1]; Study 15205, single SC 0.5, 2.0 or 8.0 mg/kg, Days 3, 7 and 14) was “comparable intestinotrophic response on villi and crypt length at all three dose levels”, the Solubility via appearance [2] was “V4: clear” and the “CMC perspective, combining purity and solubility” value [3] was “outperformed the rest of the peptides”. For the same compound, the AUC(0-inf) [4] was 14.6 µM·h, the AUC(0-t) [4] was 13.7 µM·h and the CL/F [4] was 0.617 mL/min/kg. For the same compound, the Cmax [4] was 0.49 µM, the “Time post injection up to which detectable in blood” value [4] was at most 240 h and the Tmax [4] was 12 h. The Vd/F [4] was 4.07 L/kg, the half-life [4] was 77 h and the AUC(0-inf) [5] was 36.2 µM·h. The AUC(0-t) [5] was 33.7 µM·h, the Cl/F_obs [5] was 0.015 (μmol/kg)/(μmol/L)/h and the Cmax [5] was 7.1 µM. The “Detectability in blood after IV administration” value [5] was “could not be detected 24 hours post injection”, the Tmax [5] was 0.5 h and the Vz/F_obs [5] was 0.068 (μmol/kg)/(μmol/L). For the same compound, the half-life [5] was 3.2 h, the “EC50 Ratio to Teduglutide” value (GLP-2 receptor; Table 7) was 3.8 and the “EC50 Ratio to Teduglutide” value (GLP-2 receptor; Table 8, average of 3 independent CBA) was 1.8.
